In PubChem BioAssay AID977613 (Broad Institute, 2014) one finds active concentration data, which are given here for 64 compounds.

The subject of this assay is Broad 7084-01 inhibitor HTS, set 2. As to the kind of experiment: inhibitors in Broad screen 7084-01, set 2 (AID 977613).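 Note: host cells are infected with parasite promastigotes that become internalized.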

Each structure is given as a SMILES string. Active and inactive are the calls of the source. The rule behind the calls is not given here.

`O=C(NC1Cc2ccccc2C1)[C@H]1[C@H](CO)[C@H]2Cn3c(cccc3=O)[C@@H]1N2C(=O)CC1CC1`: the active concentration is > 10 µM (inactive).
In the case of `CC(=O)N1CCCCN2[C@@H](CO)[C@@H](c3ccc(-c4ccccc4)cc3)[C@@H]2C1`, the active concentration is > 10 µM (inactive).
Then `COC(=O)[C@H]1[C@H](CO)[C@H]2Cn3c(ccc(-c4ccccc4F)c3=O)[C@@H]1N2`, with > 10 µM (inactive); and `O=C(O)[C@H]1[C@H](CO)[C@H]2Cn3c(ccc(-c4ccccc4F)c3=O)[C@@H]1N2C(=O)c1cccnc1`, with > 10 µM (inactive); and `O=C(c1cccnc1)N1C[C@H]2[C@@H](c3ccccc31)[C@H](CO)N2C(=O)CN1CCOCC1`, with less than 10 µM.
The figure for `COc1cccc(-c2ccc([C@@H]3[C@@H](CO)N4C(=O)CNC[C@H]34)cc2)c1` is > 10 µM (inactive); for `CCCN1[C@H](C(=O)Nc2nccs2)[C@@H](CO)[C@@H]2Cn3c(ccc(-c4ccccc4OC)c3=O)[C@@H]21` it is > 10 µM (inactive); for `C/C=C/c1ccc([C@@H]2[C@H]3CN(Cc4ccc(F)cc4)CC(=O)N3[C@H]2CO)cc1` it is > 10 µM (inactive).
As to `COc1ccccc1CNC(=O)C[C@@H]1CC[C@@H]2[C@H](COC[C@@H](O)CN2C(=O)Nc2ccccc2)O1`, the active concentration was > 10 µM (inactive).
The figure for `COc1ccc2c3c([nH]c2c1)[C@H](CO)N(Cc1ccc(F)cc1)CC31CCN(C)CC1` is > 10 µM (inactive); for `Cc1ccc(CN2CC(=O)N3[C@H](CO)[C@@H](c4ccc(-c5ccccc5F)cc4)[C@H]3C2)cc1` it is > 10 µM (inactive).
On to `COC(=O)[C@H]1[C@H](CO)[C@H]2Cn3c(ccc(-c4ccccc4OC)c3=O)[C@H]2N1C(=O)c1cnccn1`, for which the active concentration is > 10 µM (inactive).
As to `O=C(CC1CC1)N1CC(=O)N2[C@H](C1)[C@@H](c1ccc(/C=C/c3ccccc3)cc1)[C@@H]2CO`, the active concentration was > 10 µM (inactive).
The figure for `CCC(=O)N1CC(=O)N2[C@H](C1)[C@@H](c1ccc(-c3ccc(C#N)cc3)cc1)[C@@H]2CO` is > 10 µM (inactive); for `O=C(NC1CCCC1)N1CCCCN2[C@H](CO)[C@@H](c3ccc(-c4cccnc4)cc3)[C@@H]2C1` it is > 10 µM (inactive).
With `O=C(C[C@@H]1CC[C@H]2[C@@H](COC[C@@H](O)CN2C(=O)c2cccnc2)O1)NCc1ccccc1`, the active concentration is > 10 µM (inactive).
Consider `CCCNC(=O)N1CC(=O)N2[C@H](C1)[C@H](c1ccc(-c3ccc(F)cc3)cc1)[C@@H]2CO`, for which the active concentration is > 10 µM (inactive).
As to `O=C(NC1Cc2ccccc2C1)[C@H]1[C@H](CO)[C@H]2Cn3c(cccc3=O)[C@H]2N1C(=O)c1cnccn1`, the active concentration was > 10 µM (inactive).
For the compound `CCCNC(=O)[C@@H]1[C@@H](CO)[C@@H]2Cn3c(cccc3=O)[C@@H]2N1C`, the active concentration is > 10 µM (inactive).
`CN1C(=O)c2cc(NC(=O)c3cccc(F)c3)ccc2OC[C@@H]2O[C@@H](CC(=O)NCC3CCCCC3)CC[C@H]21`: the active concentration is > 10 µM (inactive).
As to `O=C(C[C@H]1CC[C@H]2[C@@H](COC[C@@H](O)CN2CC2CCOCC2)O1)NCC1CCCCC1`, the active concentration is > 10 µM (inactive).
Turning to `Cc1ccc(NC(=O)C[C@H]2CC[C@H]3[C@@H](COc4ccc(NC(=O)C5CCC5)cc4C(=O)N3C)O2)cc1`, the active concentration is > 10 µM (inactive).
Regarding `C/C=C/c1ccccc1[C@H]1[C@@H](CO)N(C(=O)Nc2cccc(F)c2)[C@H]1C#N`, the active concentration was > 10 µM (inactive).
On to `CC(C)C#Cc1ccc([C@H]2[C@@H](CO)N3C(=O)CN(C(=O)Cc4ccccc4)C[C@H]23)cc1`, for which the active concentration is > 10 µM (inactive).
Consider `O=C(CC1CC1)N1CC(=O)N2[C@H](CO)[C@H](c3ccc(C#Cc4cccc(F)c4)cc3)[C@@H]2C1`, for which the active concentration was > 10 µM (inactive).
With `CC(=O)N1CC[C@@H]2[C@H](CO)Nc3ccc(C#Cc4cccnc4)cc3[C@@H]21`, the active concentration was > 10 µM (inactive).
`O=C(C1CCCCC1)N1C[C@@H]2[C@H](c3ccccc31)[C@H](CO)N2C(=O)Cc1ccccn1`: the active concentration was > 10 µM (inactive).
With `O=C(c1ccccn1)N1CC[C@@H]2[C@H](CO)Nc3ccc(Br)cc3[C@@H]21`, the active concentration was > 10 µM (inactive).
With `CC(C)CC#Cc1ccc([C@@H]2[C@H](CO)N3C(=O)CN(S(=O)(=O)c4cccc(F)c4)C[C@@H]23)cc1`, the active concentration was > 10 µM (inactive).
Turning to `CN(C)CC(=O)N1[C@@H](CO)[C@@H](c2ccccc2)C12CN(Cc1cc(F)ccc1F)C2`, the active concentration was > 10 µM (inactive).
Consider `O=C(C[C@@H]1CC[C@@H]2[C@H](COC[C@@H](O)CN2C(=O)C2CC2)O1)NCc1ccncc1`, for which the active concentration was > 10 µM (inactive).
Consider `O=C(C[C@@H]1CC[C@H]2[C@@H](COC[C@H](O)CN2C(=O)Nc2cc(Cl)cc(Cl)c2)O1)NCC1CCCCC1`, for which the active concentration is > 10 µM (inactive).
Then `CC=Cc1ccc2n(c1=O)C[C@H]1[C@H](CO)[C@@H](C(=O)NCCC)N(Cc3cocn3)[C@@H]21` (mixture of isomers), with > 10 µM (inactive); and `O=C(CN1CCOCC1)N1CC2(C1)[C@@H](c1ccccc1)[C@@H](CO)N2Cc1ccc(F)cc1`, with > 10 µM (inactive); and `CCNC(=O)Nc1ccc2c(c1)C(=O)N(C)[C@H]1CC[C@@H](CC(=O)N[C@H](C)c3ccccc3)O[C@H]1CO2`, with > 10 µM (inactive).
Take `O=S(=O)(c1ccc(F)cc1)N1C[C@H]2[C@@H](c3ccccc31)[C@@H](CO)N2Cc1ccccc1Cl`: the active concentration was > 10 µM (inactive).
The figure for `CC(=O)N1[C@@H](CO)[C@@H](c2ccc(C3=CCCC3)cc2)C12CN(C(=O)NC(C)C)C2` is > 10 µM (inactive); for `C/C=C/c1ccc([C@@H]2[C@H](CO)N(C(=O)c3cnccn3)C23CN(C(C)=O)C3)cc1` it is > 10 µM (inactive); for `C/C=C/c1ccc([C@@H]2[C@H](CO)N(S(=O)(=O)CC)C23CN(C(C)=O)C3)cc1` it is > 10 µM (inactive).
Turning to `CCNC(=O)C[C@H]1CC[C@@H]2[C@H](COC[C@@H](O)CN2C(=O)C2CC2)O1`, the active concentration was > 10 µM (inactive).
`COCC(=O)N1CC2(C1)[C@H](c1ccc(-c3ccc(C)cc3)cc1)[C@@H](CO)N2C(C)=O`: the active concentration was > 10 µM (inactive).
`CCS(=O)(=O)Nc1ccc2c(c1)C(=O)N(C)[C@@H]1CC[C@H](CC(=O)NCCOC)O[C@H]1CO2`: the active concentration was > 10 µM (inactive).
For `Cc1ccccc1S(=O)(=O)N1CCCCN2[C@H](C1)[C@H](c1ccc(C#CCN(C)C)cc1)[C@@H]2CO`, the active concentration was > 10 µM (inactive).
As for `O=C(C1CCCCC1)N1CC(=O)N2[C@H](CO)[C@@H](c3ccc(-c4ccccc4F)cc3)[C@@H]2C1`, the active concentration was > 10 µM (inactive).
`O=C(CC(F)(F)F)N1C[C@@H]2[C@H](c3ccccc31)[C@H](CO)N2CC1CCOCC1`: the active concentration is > 10 µM (inactive).
The figure for `N#C[C@@H]1[C@@H](c2ccccc2-c2cccc(F)c2)[C@@H](CO)N1C(=O)CN1CCOCC1` is > 10 µM (inactive); for `O=C(C[C@@H]1CC[C@@H]2[C@H](COC[C@H](O)CN2C(=O)c2ccccc2F)O1)NCc1ccccc1` it is > 10 µM (inactive); for `N#C[C@H]1[C@H](c2ccccc2C2=CCCCC2)[C@H](CO)N1C(=O)c1cccc(F)c1` it is > 10 µM (inactive).
For the compound `C/C=C/c1ccccc1[C@H]1[C@@H](CO)N(C(=O)NC2CCCCC2)[C@H]1C#N`, the active concentration was > 10 µM (inactive).
Then `CN(C)C(=O)C[C@H]1CC[C@@H]2[C@H](COC[C@H](O)CN2CC2CCCC2)O1`, with > 10 µM (inactive).
Regarding `CN1C(=O)c2cc(NC(=O)c3ccccc3Cl)ccc2OC[C@H]2O[C@H](CC(=O)NCC(F)(F)F)CC[C@H]21`, the active concentration was > 10 µM (inactive).
The figure for `COc1cccc(C#Cc2ccc3c(c2)[C@@H]2[C@@H](CCN2C(=O)CC2CC2)[C@@H](CO)N3)c1` is > 10 µM (inactive); for `CN1c2ccc(-c3cccc(F)c3)cc2[C@@H]2[C@@H](CCN2C(=O)c2ccccc2F)[C@H]1CO` it is > 10 µM (inactive); for `O=C(C1CCCCC1)N1CC(=O)N2[C@H](CO)[C@H](c3ccc(-c4ccccc4F)cc3)[C@@H]2C1` it is > 10 µM (inactive).
As to `CN(C)C(=O)C[C@@H]1CC[C@@H]2[C@H](COC[C@H](O)CN2C(=O)C2CC2)O1`, the active concentration is > 10 µM (inactive).
Regarding `O=C1CN(S(=O)(=O)Cc2ccccc2)C[C@H]2[C@@H](c3ccc(C#Cc4ccccc4)cc3)[C@H](CO)N12`, the active concentration was > 10 µM (inactive).
Consider `O=C(NC1CCCC1)N1CCCCN2[C@H](C1)[C@@H](c1ccc(-c3cccnc3)cc1)[C@@H]2CO`, for which the active concentration was > 10 µM (inactive).
On to `COC(=O)c1ccc(CN2CC(=O)N3[C@H](CO)[C@H](c4ccc(-c5cccnc5)cc4)[C@H]3C2)cc1`, for which the active concentration is > 10 µM (inactive).
Take `O=C(C[C@@H]1CC[C@@H]2[C@H](COC[C@@H](O)CN2C(=O)c2cccnc2)O1)NCc1ccccc1`: the active concentration is > 10 µM (inactive).
`O=C(c1ccccn1)N1C[C@@H]2[C@H](c3ccccc31)[C@H](CO)N2C(=O)Nc1ccccc1F`: the active concentration was > 10 µM (inactive).
As for `COc1cccc(C#Cc2ccc([C@@H]3[C@@H](CO)N4C(=O)CN(C(=O)Cc5cccnc5)C[C@H]34)cc2)c1`, the active concentration was > 10 µM (inactive).
As to `O=C(C[C@@H]1CC[C@@H]2[C@H](COC[C@H](O)CN2C(=O)c2ccccc2)O1)Nc1ccc(-c2ccccc2)cc1`, the active concentration was > 10 µM (inactive).
Take `CN1C[C@H](O)COC[C@@H]2O[C@H](CC(=O)NC3CCCC3)CC[C@H]21`: the active concentration is > 10 µM (inactive).
With `COc1cccc(S(=O)(=O)N2CCCCN3[C@H](C2)[C@@H](c2ccc(C#CCC(C)C)cc2)[C@@H]3CO)c1`, the active concentration is > 10 µM (inactive).
